Square brackets hold non-standard residues; d marks the D form. Peptide text beside a SMILES is read from it. Nle = CCCC[C@H](N)C(=O)O
How the values were obtained:
Type in all cases: cell-based
[1] = system: A549 cells; experiment: Apoptosis by annexin V-FITC staining, flow cytometry; details: 26 hours post treatment
Description: (§1) The effect of an inhibitor of μ-calpains, CI-1 (N-acetyl-leu-leu-norleucinal), was investigated for its ability to enhance p53 mediated apoptosis in tumor cell lines having p53+ and p53− status listed in Table1. Each cell line was treated with 5–50 μM CI-1 for 17–26 hours. To detect a G0/G1 block, bromodeoxyuridine (BrdU) incorporation followed by flow cytometric analysis was done 17 hours post-treatment as described in Example 4 herein. […] The results of these experiments are presented in FIGS. 1 and 2 of the attached drawings. In FIG. 1, each point on the graph represents percentage annexin V positive after background percentage (DMF alone) was subtracted.
(§2) CI-1 was obtained from Boehringer-Mannheim Biochemicals (Indianapolis, Ind.). The CI-1 containing media was prepared as follows. CI-1 was diluted in dimethylformamide (DMF) to a concentration of 33.3 μM/μl. The CI-1 solution in DMF was added to achieve a final concentration in the media of 5 or 10 μM final concentration of CI-1. An equivalent volume of DMF alone was added to the control cells. Calpain inhibitor 2, N-acetyl-leu—leu-methioninal (Boehringer Mannheim) was added to cell lines at 5–50 μM final concentration with or without rAd-p53 for 26 hours.
(§3) At a time of 17 (or 26 hours) post infection, the percentage of cells undergoing apoptosis was determined by convential apoptotic markers. Apoptosis was monitored visually by observing blebbed nuclei characteristic of apoptosis, by propidium iodide staining (using propidium iodide commercially available from Molecular Probes, Inc.) followed by flow cytometric analysis to look for subgenomic populations of cells, and by labeling cells with annexin V-FITC (commercially available from Boehringer Mannheim) in substantial accordance with the instructions provided by the manufacturer, followed by flow cytometric analysis on a FACScan Flow Cytometer (commercially available from Becton Dickinson).

[2] = system: Hep3B cells; experiment: as above; details: for Percent Annexin V Positive Staining: 26 hours post treatment
Description: as §1, §2, §3

[3] = system: NCI-H596 cells; experiment: as above; details: CI-1 treatment; p53 mutated lung cell line
Description: as §1, §2, §3

[4] = system: AP-1; experiment: Gel shift assay; details: HLF cells; 10 μM CI-1; 24 hours post treatment
Description: (§4) The lanes on the gel are labelled as follows: Lane 1=DMF solvent alone control; Lane 2=10 μM CI-1; Lane 3=a null control vector based on ACN53 without the p53 transgene (ZZCB); Lane 4=ZZCB+10 μM CI-1; Lane 5=ACN53 alone and Lane 6=ACN53+ 10 μM CI-1. Panel A illustrates the induction of NF-kb upon administration of calpain inhibitor 1. Panel B illustrates the induction of AP-1 upon administration of calpain inhibitor 1.
(§5) In contrast to these studies, the present invention further provides a method of enhancing transcription of a therapeutic transgene from the CMV promoter. The term “enhancing transcription” refers to an increase in the transcriptional activity of those sequences operably linked to the CMV promter. The term CMV promoter means the immediate early promoter of the cytomegalovirus. The promoter may be isolated as a restriction endonuclease fragment from the commercially available vector pCMVβ (GenBank Accession Number U02451). […] The CMV promoter is a strong constituitive promoter widely utilized in the expression of exogenous transgenes from viral vectors. Recent reports indicated an upregulation of the CMV promoter driven genes in response to recombinant adenoviral infection. […] In response to calpain inhibitor 1 treatment, a 42% increase in NF-kB activation was detected, and a 50% increase in AP1 activation was detected as quantified by densitometer readings. […]

[5] = system: NF-kB; experiment: Gel shift assay; details: HLF cells; 10 μM CI-1; 24 hours post treatment
Description: as §4, §5

## CCCC[C@@H](C=O)NC(=O)[C@H](CC(C)C)NC(=O)[C@H](CC(C)C)NC(C)=O [CI-1, N-acetyl-leu-leu-norleucinal] (Ac-Leu-Leu-[Nle]-aldehyde)
[1]; CI-1 10 μM
  Percent Annexin V Positive Staining: 6%
[1]; CI-1 20 μM
  Percent Annexin V Positive Staining: 5%
[1]; CI-1 50 μM
  Percent Annexin V Positive Staining: 18%
[2]; CI-1 20 μM
  Percent Annexin V Positive Staining: 36%
[2]; CI-1 50 μM
  Percent Annexin V Positive Staining: 32%
[2]; highest concentration of inhibitor (50 μM), p53 null
  increase in the percentage of apoptotic cells: no increase
[3]
  increase in the percent of cells annexin V positive in response to treatment: no increase
[4]
  increase in AP1 activation (densitometer): 50%
[5]
  increase in NF-kB activation (densitometer): 42%
